Results taken from ChEMBL document CHEMBL1629662, “Antimicrobial activity of prulifloxacin tested against a worldwide collection of gastroenteritis-producing pathogens, including those causing traveler's diarrhea” (2009).

Assays:
[1] = tested on: Escherichia coli; assay: Antibacterial activity against Escherichia coli by broth microdilution method; type: functional
[2] = tested on: Escherichia coli; assay: Antibacterial activity against Escherichia coli assessed as percent susceptible isolates by broth microdilution method; type: functional
[3] = tested on: Escherichia coli; assay: Antibacterial activity against Escherichia coli assessed as percent resistant isolates by broth microdilution method; type: functional
[4] = tested on: Salmonella typhimurium; assay: Antibacterial activity against Salmonella enterica serovar Typhimurium by broth microdilution method; type: functional, Salmonella enterica subsp. enterica serovar Typhimurium
[5] = tested on: Salmonella typhimurium; assay: Antibacterial activity against Salmonella enterica serovar Typhimurium assessed as percent resistant isolates by broth microdilution method; type: functional, Salmonella enterica subsp. enterica serovar Typhimurium; conditions: pooled result: one value given for 8 cell lines, strains, targets or settings
[6] = tested on: Salmonella enteritidis; assay: Antibacterial activity against Salmonella enterica serovar Enteritidis by broth microdilution method; type: functional, Salmonella enterica subsp. enterica serovar Enteritidis
[7] = tested on: Salmonella enteritidis; assay: Antibacterial activity against Salmonella enterica serovar Enteritidis assessed as percent susceptible isolates by broth microdilution method; type: functional, Salmonella enterica subsp. enterica serovar Enteritidis; conditions: pooled result: one value given for 5 cell lines, strains, targets or settings
[8] = tested on: Salmonella typhi; assay: Antibacterial activity against Salmonella enterica serovar Typhi by broth microdilution method; type: functional, Salmonella enterica subsp. enterica serovar Typhi
[9] = tested on: Salmonella typhi; assay: Antibacterial activity against Salmonella enterica serovar Typhi assessed as percent susceptible isolates by broth microdilution method; type: functional, Salmonella enterica subsp. enterica serovar Typhi
[10] = tested on: Salmonella paratyphi; assay: Antibacterial activity against Salmonella enterica serovar Paratyphi by broth microdilution method; type: functional, Salmonella enterica subsp. enterica serovar Paratyphi A
[11] = tested on: Salmonella paratyphi; assay: Antibacterial activity against Salmonella enterica serovar Paratyphi assessed as percent susceptible isolates by broth microdilution method; type: functional, Salmonella enterica subsp. enterica serovar Paratyphi A
[12] = Antibacterial activity against Salmonella enterica serovar Choleraesuis by broth microdilution method; type: functional, Salmonella enterica subsp. enterica serovar Choleraesuis
[13] = Antibacterial activity against Salmonella enterica serovar Choleraesuis assessed as percent susceptible isolates by broth microdilution method; type: functional, Salmonella enterica subsp. enterica serovar Choleraesuis
[14] = Antibacterial activity against Salmonella enterica serovar Newport by broth microdilution method; type: functional, Salmonella enterica subsp. enterica serovar Newport
[15] = Antibacterial activity against Salmonella enterica serovar Virchow by broth microdilution method; type: functional, Salmonella enterica subsp. enterica serovar Virchow
[16] = Antibacterial activity against Salmonella enterica serovar Heidelberg by broth microdilution method; type: functional, Salmonella enterica subsp. enterica serovar Heidelberg
[17] = tested on: Shigella sonnei; assay: Antibacterial activity against Shigella sonnei by broth microdilution method; type: functional
[18] = tested on: Shigella sonnei; assay: Antibacterial activity against Shigella sonnei assessed as percent resistant isolates by broth microdilution method; type: functional; conditions: pooled result: one value given for 4 cell lines, strains, targets or settings
[19] = tested on: Shigella flexneri; assay: Antibacterial activity against Shigella flexneri by broth microdilution method; type: functional
[20] = tested on: Shigella boydii; assay: Antibacterial activity against Shigella boydii by broth microdilution method; type: functional
[21] = tested on: Shigella boydii; assay: Antibacterial activity against Shigella boydii assessed as percent susceptible isolates by broth microdilution method; type: functional; conditions: pooled result: one value given for 3 cell lines, strains, targets or settings
[22] = tested on: Shigella dysenteriae; assay: Antibacterial activity against Shigella dysenteriae by broth microdilution method; type: functional
[23] = tested on: Shigella dysenteriae; assay: Antibacterial activity against Shigella dysenteriae assessed as percent susceptible isolates by broth microdilution method; type: functional
[24] = tested on: Yersinia enterocolitica; assay: Antibacterial activity against Yersinia enterocolitica by broth microdilution method; type: functional
[25] = tested on: Yersinia enterocolitica; assay: Antibacterial activity against Yersinia enterocolitica assessed as percent susceptible isolates by broth microdilution method; type: functional
[26] = tested on: Yersinia enterocolitica; assay: Antibacterial activity against Yersinia enterocolitica assessed as percent resistant isolates by broth microdilution method; type: functional
[27] = tested on: Yersinia pseudotuberculosis; assay: Antibacterial activity against Yersinia pseudotuberculosis by broth microdilution method; type: functional
[28] = tested on: Yersinia pseudotuberculosis; assay: Antibacterial activity against Yersinia pseudotuberculosis assessed as percent susceptible isolates by broth microdilution method; type: functional
[29] = tested on: Aeromonas hydrophila; assay: Antibacterial activity against Aeromonas hydrophila by broth microdilution method; type: functional
[30] = tested on: Aeromonas hydrophila; assay: Antibacterial activity against Aeromonas hydrophila assessed as percent susceptible isolates by broth microdilution method; type: functional
[31] = tested on: Aeromonas hydrophila; assay: Antibacterial activity against Aeromonas hydrophila assessed as percent resistant isolates by broth microdilution method; type: functional
[32] = tested on: Aeromonas caviae; assay: Antibacterial activity against Aeromonas caviae by broth microdilution method; type: functional
[33] = tested on: Aeromonas caviae; assay: Antibacterial activity against Aeromonas caviae assessed as percent susceptible isolates by broth microdilution method; type: functional
[34] = tested on: Aeromonas caviae; assay: Antibacterial activity against Aeromonas caviae assessed as percent resistant isolates by broth microdilution method; type: functional
[35] = tested on: Aeromonas sobria; assay: Antibacterial activity against Aeromonas sobria by broth microdilution method; type: functional
[36] = tested on: Aeromonas sobria; assay: Antibacterial activity against Aeromonas sobria assessed as percent susceptible isolates by broth microdilution method; type: functional
[37] = tested on: Aeromonas sobria; assay: Antibacterial activity against Aeromonas sobria assessed as percent resistant isolates by broth microdilution method; type: functional
[38] = tested on: Aeromonas veronii; assay: Antibacterial activity against Aeromonas veronii by broth microdilution method; type: functional
[39] = tested on: Aeromonas veronii; assay: Antibacterial activity against Aeromonas veronii assessed as percent susceptible isolates by broth microdilution method; type: functional
[40] = tested on: Aeromonas veronii; assay: Antibacterial activity against Aeromonas veronii assessed as percent resistant isolates by broth microdilution method; type: functional
[41] = tested on: Plesiomonas shigelloides; assay: Antibacterial activity against Plesiomonas shigelloides by broth microdilution method; type: functional
[42] = tested on: Plesiomonas shigelloides; assay: Antibacterial activity against Plesiomonas shigelloides assessed as percent susceptible isolates by broth microdilution method; type: functional
[43] = tested on: Plesiomonas shigelloides; assay: Antibacterial activity against Plesiomonas shigelloides assessed as percent resistant isolates by broth microdilution method; type: functional
[44] = tested on: Vibrio cholerae; assay: Antibacterial activity against Vibrio cholerae by broth microdilution method; type: functional
[45] = tested on: Vibrio parahaemolyticus; assay: Antibacterial activity against Vibrio parahaemolyticus by broth microdilution method; type: functional
[46] = tested on: Vibrio alginolyticus; assay: Antibacterial activity against Vibrio alginolyticus by broth microdilution method; type: functional
[47] = tested on: Vibrio fluvialis; assay: Antibacterial activity against Vibrio fluvialis by broth microdilution method; type: functional
[48] = tested on: Vibrio vulnificus; assay: Antibacterial activity against Vibrio vulnificus by broth microdilution method; type: functional
[49] = tested on: Vibrio sp.; assay: Antibacterial activity against Vibrio sp. by broth microdilution method; type: functional
[50] = tested on: Campylobacter jejuni; assay: Antibacterial activity against Campylobacter jejuni by broth microdilution method; type: functional
[51] = tested on: Campylobacter coli; assay: Antibacterial activity against Campylobacter coli by broth microdilution method; type: functional

Which results are given for `CCn1cc(C(=O)O)c(=O)c2ccc(C)nc21` [NALIDIXIC ACID]?
MIC50 [1]: ≤ 8 mg/L; MIC90 [1]: ≤ 8 mg/L; Activity [2]: 95%; Activity [3]: 5%; MIC50 [4]: ≤ 8 mg/L; MIC90 [4]: > 32 mg/L; Activity [5]: 15.8%; MIC50 [6]: ≤ 8 mg/L; MIC90 [6]: > 32 mg/L; Activity [7]: 84.2%; MIC50 [8]: ≤ 8 mg/L; MIC90 [8]: > 32 mg/L; Activity [9]: 84.2%; MIC50 [10]: ≤ 8 mg/L; MIC90 [10]: > 32 mg/L; Activity [11]: 84.2%; MIC50 [12]: ≤ 8 mg/L; MIC90 [12]: > 32 mg/L; Activity [13]: 84.2%; MIC50 [14]: ≤ 8 mg/L; MIC90 [14]: > 32 mg/L; MIC50 [15]: ≤ 8 mg/L; MIC90 [15]: > 32 mg/L; MIC50 [16]: ≤ 8 mg/L; MIC90 [16]: > 32 mg/L; MIC50 [17]: ≤ 8 mg/L; MIC90 [17]: ≤ 8 mg/L; Activity [18]: 3%; MIC50 [19]: ≤ 8 mg/L; MIC90 [19]: ≤ 8 mg/L; MIC50 [20]: ≤ 8 mg/L; MIC90 [20]: ≤ 8 mg/L; Activity [21]: 97%; MIC50 [22]: ≤ 8 mg/L; MIC90 [22]: ≤ 8 mg/L; Activity [23]: 97%; MIC50 [24]: ≤ 8 mg/L; MIC90 [24]: ≤ 8 mg/L; Activity [25]: 93.5%; Activity [26]: 6.5%; MIC50 [27]: ≤ 8 mg/L; MIC90 [27]: ≤ 8 mg/L; Activity [28]: 93.5%; MIC50 [29]: ≤ 8 mg/L; MIC90 [29]: > 32 mg/L; Activity [30]: 81.2%; Activity [31]: 18.8%; MIC50 [32]: ≤ 8 mg/L; MIC90 [32]: > 32 mg/L; Activity [33]: 81.2%; Activity [34]: 18.8%; MIC50 [35]: ≤ 8 mg/L; MIC90 [35]: > 32 mg/L; Activity [36]: 81.2%; Activity [37]: 18.8%; MIC50 [38]: ≤ 8 mg/L; MIC90 [38]: > 32 mg/L; Activity [39]: 81.2%; Activity [40]: 18.8%; MIC [41]: ≤ 8 mg/L; MIC50 [41]: ≤ 8 mg/L; Activity [42]: 100%; Activity [43]: 0%; MIC [44]: ≤ 8 mg/L; MIC50 [44]: ≤ 8 mg/L; MIC90 [44]: ≤ 8 mg/L; MIC [45]: ≤ 8 mg/L; MIC50 [45]: ≤ 8 mg/L; MIC90 [45]: ≤ 8 mg/L; MIC [46]: ≤ 8 mg/L; MIC50 [46]: ≤ 8 mg/L; MIC90 [46]: ≤ 8 mg/L; MIC [47]: ≤ 8 mg/L; MIC50 [47]: ≤ 8 mg/L; MIC90 [47]: ≤ 8 mg/L; MIC [48]: ≤ 8 mg/L; MIC50 [48]: ≤ 8 mg/L; MIC90 [48]: ≤ 8 mg/L; MIC [49]: ≤ 8 mg/L; MIC50 [49]: ≤ 8 mg/L; MIC90 [49]: ≤ 8 mg/L; MIC50 [50]: ≤ 8 mg/L; MIC90 [50]: > 32 mg/L; MIC50 [51]: ≤ 8 mg/L; MIC90 [51]: > 32 mg/L
